Some test systems named below: UACC-257 melanoma; SN12C renal; RXF 393 renal; KM12 colon; MALME-3M melanoma; DU-145 prostate; NCI-H522 lung; SK-MEL-28 melanoma; U251 CNS.
What all share (experiment): NCI anticancer screen, dose series, 48 h

The structures appear in SMILES notation. Where “and” joins values, the source holds several entries; their conditions need not be identical. Equal entries are not always repeated.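 Values below derive from 48-hour exposures of cells grown in 96-well plates, with endpoints linearly interpolated between the two concentrations bracketing the appropriate inhibition level. The concentration for 50% growth inhibition is given as GI50. The concentration for full growth arrest is given as TGI.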

On to `CCOC(=O)CCCn1c(SC)nc2cc(-c3ccco3)[nH]c2c1=O`, for which the GI50 in the test with UACC-257 melanoma is over 100 µM; in the test on SN12C renal, 81.8 µM; with RXF 393 renal, 12 µM; in the test with KM12 colon it was over 100 µM; with MALME-3M melanoma, over 100 µM; in the test with DU-145 prostate, over 100 µM. Also, the GI50 in the test with NCI-H522 lung is 35.1 µM; in the test on SK-MEL-28 melanoma, over 100 µM; in the test with U251 CNS it was 17.1 µM. Further, the TGI with UACC-257 melanoma was over 100 µM; with SN12C renal it was over 100 µM; with RXF 393 renal it was 30.6 µM; with KM12 colon, over 100 µM; in the test on MALME-3M melanoma, over 100 µM; in the test on DU-145 prostate it was over 100 µM. Moreover, the TGI in the test with NCI-H522 lung was over 100 µM; with SK-MEL-28 melanoma, over 100 µM; in the test with U251 CNS it was 56 µM.
Consider `N#CCc1ccc(C(C#N)/C(CCCC(=O)Nc2cccc([N+](=O)[O-])c2)=N\NC(=O)NN)cc1` (stereo not drawn), for which the TGI with UACC-257 melanoma, in the test with SN12C renal, in the test with RXF 393 renal, in the test on KM12 colon, in the test on MALME-3M melanoma and in the test on NCI-H522 lung was over 100 µM in each case. Moreover, the TGI with SK-MEL-28 melanoma and in the test with U251 CNS was over 100 µM each time.
As to `C1CNCCNCCNCCN1`, the TGI with UACC-257 melanoma, in the test on SN12C renal, with RXF 393 renal, in the test with KM12 colon, with MALME-3M melanoma and in the test on NCI-H522 lung was over 100 µM each time. The TGI is over 100 µM in the test on SK-MEL-28 melanoma and 81.5 µM with U251 CNS.
For `O=C1CCCCCCCCCCC(=O)C2CCOCCOCCOCCC1Cc1cccc(n1)C2`, the TGI in the test with UACC-257 melanoma, in the test with SN12C renal, in the test on RXF 393 renal, with KM12 colon, in the test on MALME-3M melanoma and in the test on NCI-H522 lung was over 100 µM in each case. Besides, the TGI with SK-MEL-28 melanoma and with U251 CNS was over 100 µM each time.
Turning to `CC(=O)NC1=C(Nc2ccc(C)cc2)C(=O)c2ccccc2C1=O`, the TGI is 51.5 µM in the test with UACC-257 melanoma; 44 µM in the test with SN12C renal; over 75 µM in the test with RXF 393 renal; over 75 µM with KM12 colon; 22.8 µM in the test with MALME-3M melanoma; 39.1 µM in the test on SK-MEL-28 melanoma. In the test on U251 CNS, this molecule registered a TGI of over 75 µM.
As for `COC(=O)/C=C(C)/C=C/c1cc(C(C)=O)c(C)o1`, the TGI in the test on UACC-257 melanoma, in the test with KM12 colon, with MALME-3M melanoma, in the test on NCI-H522 lung and in the test with U251 CNS was over 100 µM each time.
Take `C=CC[C@H]1C[C@@]2(C)OC[C@H](C(C)C)N2C1=O`: the TGI in the test with UACC-257 melanoma, in the test on SN12C renal, with RXF 393 renal, in the test on KM12 colon, in the test on MALME-3M melanoma and in the test with SK-MEL-28 melanoma was over 100 µM in each case. Further, in the test with U251 CNS, the TGI was over 100 µM.
Consider `O=[N+]([O-])c1ccc(Sc2c3ccccc3nc3ccccc23)cc1`, for which the TGI with UACC-257 melanoma, in the test with SN12C renal, in the test on RXF 393 renal, in the test with KM12 colon, in the test with MALME-3M melanoma and in the test on NCI-H522 lung was over 100 µM throughout. Also, the TGI in the test with SK-MEL-28 melanoma and in the test with U251 CNS was over 100 µM throughout.
For `NCCCN(CCCN)CCCNCc1c2ccccc2c(CNCCCN(CCCN)CCCN)c2ccccc12`, the TGI in the test with UACC-257 melanoma was found to be 27.3 µM; in the test on SN12C renal it was 34.2 µM; with RXF 393 renal, 45.2 µM; with KM12 colon, 14 µM; with MALME-3M melanoma, 22.4 µM; with NCI-H522 lung, 26.1 µM. Besides, the TGI in the test with SK-MEL-28 melanoma was 21.9 µM; in the test on U251 CNS it was 33 µM.
On to `S=c1[nH]c(=S)c2sc(=S)n(-c3ccccc3)c2[nH]1`, for which the TGI in the test with UACC-257 melanoma, in the test with SN12C renal, in the test on RXF 393 renal, in the test with KM12 colon, with MALME-3M melanoma and in the test with NCI-H522 lung was over 100 µM in each case. In addition, the TGI in the test on SK-MEL-28 melanoma and in the test with U251 CNS was over 100 µM throughout.
On to `CC1Cc2c(N)nc(NN)nc2NC1=O` (stereo not drawn), for which the TGI in the test with UACC-257 melanoma, in the test on SN12C renal, in the test on RXF 393 renal, in the test with KM12 colon, with MALME-3M melanoma and in the test on NCI-H522 lung was over 100 µM in each case. Also, the TGI in the test with SK-MEL-28 melanoma and in the test with U251 CNS was over 100 µM in each case.
Regarding `CCOc1cc2c(cnc3c4cc(OC)c(OC)cc4ccc23)cc1OC`, the TGI in the test with UACC-257 melanoma, with SN12C renal, in the test on KM12 colon, in the test with MALME-3M melanoma, in the test on NCI-H522 lung and with SK-MEL-28 melanoma was over 100 µM throughout. In addition, in the test on U251 CNS, the TGI was over 100 µM.
As for `COC1/C(=C\C(=O)OC(C)(C)C)c2ccccc2N1C(C)=O` (stereo not drawn), the TGI in the test with UACC-257 melanoma, in the test on SN12C renal, in the test with RXF 393 renal, with KM12 colon, with SK-MEL-28 melanoma and in the test on U251 CNS was over 100 µM throughout.
Regarding `Clc1ccc(-n2nnc(C3=NCCCN3)c2-c2ccccc2)cc1`, the TGI with UACC-257 melanoma, with SN12C renal, in the test with RXF 393 renal, in the test with KM12 colon, in the test on MALME-3M melanoma and in the test with NCI-H522 lung was over 100 µM throughout. Moreover, the TGI in the test with SK-MEL-28 melanoma and with U251 CNS was over 100 µM in each case.
Take `CC(C)=CC(=O)Oc1ccc([N+](=O)[O-])cc1`: the TGI is over 100 µM with UACC-257 melanoma; over 100 µM in the test with SN12C renal; over 100 µM with RXF 393 renal; over 100 µM with KM12 colon; over 100 µM in the test on MALME-3M melanoma; 14.8 µM with NCI-H522 lung. The molecule further came in with a TGI in the test on U251 CNS of over 100 µM.
On to `CC(=O)OCC1OC(OC2CC3C(C)(C)C(OC(C)=O)CC[C@]3(C)C3CCC45CC4(CC[C@H]5C(C)CC(O)[C@@H](O)C(C)(C)O)[C@]23C)C(O)C(O)C1O` (stereo partly drawn), for which the TGI in the test on UACC-257 melanoma is 13.8 µM and 20.7 µM; in the test on SN12C renal it was 13.2 µM and 19.1 µM; in the test on RXF 393 renal it was 13.9 µM; in the test on KM12 colon it was 14.2 µM and 14.1 µM; with MALME-3M melanoma, 13.9 µM and 26 µM; with NCI-H522 lung, 7.17 µM and 7.74 µM. In addition, the TGI in the test with SK-MEL-28 melanoma is 13.7 µM and 17.8 µM; in the test with U251 CNS it was 12.3 µM and 15.6 µM. In addition, the GI50 is 4.36 µM in the test on KM12 colon, 13.2 µM in the test with MALME-3M melanoma, 5.21 µM in the test on SK-MEL-28 melanoma and 4.3 µM in the test on U251 CNS.
